The experiment addresses T1, PD-1/PD-L1 (Homo sapiens, UniProt Q9NZQ7).
T1 construct: made in house; host or cells: HEK293T
Kind of experiment: PD-1/PD-L1 Homogenous Time-Resolved Fluorescence (HTRF) binding assay. As to conditions: PD-L1-His 10 nM, PD-1-Ig 20 nM; value given as range class; read-out: Range or IC50. A digest of the protocol: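 dPBS + 0.1% BSA + 0.05% Tween-20 buffer; Eu-cryptate anti-Ig 1 nM final, APC anti-His 20 nM final; HTRF read. Counter-assays: PD-1-Ig/PD-L2-His 20 & 5 nM, CD80-His/PD-L1-Ig 100 & 10 nM.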
On the technique in general: Time-resolved FRET reads energy transfer from a long-lived donor to a nearby acceptor.

By IC50 is commonly meant the concentration at which inhibition is half-maximal.

T1 sequence (Q9NZQ7 with tags, fused parts or gaps): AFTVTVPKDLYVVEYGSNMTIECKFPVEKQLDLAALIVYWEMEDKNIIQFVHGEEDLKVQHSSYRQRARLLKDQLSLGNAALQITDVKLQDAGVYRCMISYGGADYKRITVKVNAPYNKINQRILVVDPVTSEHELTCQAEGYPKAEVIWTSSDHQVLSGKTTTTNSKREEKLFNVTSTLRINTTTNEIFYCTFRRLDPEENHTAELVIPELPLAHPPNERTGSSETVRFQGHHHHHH

Consider `Cc1c(COc2cc(OCc3cncc(S(C)(=O)=O)c3)c(CN[C@H](CO)C(=O)O)cc2Cl)cccc1-c1cccc(OCCCN2CC[C@@H](O)C2)c1C` [Example 1025, (R)-2-((5-chloro-4-((3′-(3-((R)-3-hydroxypyrrolidin-1-yl)propoxy)-2,2′-dimethyl-[1,1′-biphenyl]-3-yl)methoxy)-2-((5-(methylsulfonyl)pyridin-3-yl)methoxy)benzyl)amino)-3-hydroxypropanoic Acid], for which the IC50 lay within 0.21 to 10 nM.

With `Cc1c(COc2cc(OCc3cncc(S(C)(=O)=O)c3)c(CN[C@](C)(CO)C(=O)O)cc2Cl)cccc1-c1cccc(OCCCN2CC[C@@H](O)C2)c1C` [Example 1026, (R)-2-((5-chloro-4-((3′-(3-((R)-3-hydroxypyrrolidin-1-yl)propoxy)-2,2′-dimethyl-[1,1′-biphenyl]-3-yl)methoxy)-2-((5-(methylsulfonyl)pyridin-3-yl)methoxy)benzyl)amino)-3-hydroxy-2-methylpropanoic Acid], the IC50 fell in the range of 0.21 to 10 nM.

With `Cc1c(COc2cc(OCc3cncc(S(C)(=O)=O)c3)c(CN3CCCC[C@H]3C(=O)O)cc2Cl)cccc1-c1cccc(OCCCN2CC[C@@H](O)C2)c1C` [Example 1027, (S)-1-(5-chloro-4-((3′-(3-((R)-3-hydroxypyrrolidin-1-yl)propoxy)-2,2′-dimethyl-[1,1′-biphenyl]-3-yl)methoxy)-2-((5-(methylsulfonyl)pyridin-3-yl)methoxy)benzyl)piperidine-2-carboxylic Acid], the IC50 lay in the range of 0.21 to 10 nM.

Consider `COC(=O)C1(O)CCN(CCCOc2cccc(-c3cccc(COc4cc(OCc5cncc(C#N)c5)c(CN[C@H](CO)C(=O)O)cc4Cl)c3C)c2)CC1` [Example 1028, (R)-2-((5-chloro-2-((5-cyanopyridin-3-yl)methoxy)-4-((3′-(3-(4-hydroxy-4-(methoxycarbonyl)piperidin-1-yl)propoxy)-2-methyl-[1,1′-biphenyl]-3-yl)methoxy)benzyl)amino)-3-hydroxypropanoic Acid], for which the concentration for half-maximal inhibition (IC50) lay in the range of 0.21 to 10 nM.

For the compound `COC(=O)C1(O)CCN(CCCOc2cccc(-c3cccc(COc4cc(OCc5cncc(C#N)c5)c(CN[C@H](CO)C(=O)O)cc4Cl)c3C)c2C)CC1` [Example 1029, (R)-2-((5-chloro-2-((5-cyanopyridin-3-yl)methoxy)-4-((3′-(3-(4-hydroxy-4-(methoxycarbonyl)piperidin-1-yl)propoxy)-2,2′-dimethyl-[1,1′-biphenyl]-3-yl)methoxy)benzyl)amino)-3-hydroxypropanoic Acid], the IC50 lay in the range of 0.21 to 10 nM.

On to `COC(=O)C1(O)CCN(CCCOc2cccc(-c3cccc(COc4cc(OCc5cncc(C#N)c5)c(CN[C@](C)(CO)C(=O)O)cc4Cl)c3C)c2C)CC1` [Example 1030, (R)-2-((5-chloro-2-((5-cyanopyridin-3-yl)methoxy)-4-((3′-(3-(4-hydroxy-4-(methoxycarbonyl)piperidin-1-yl)propoxy)-2,2′-dimethyl-[1,1′-biphenyl]-3-yl)methoxy)benzyl)amino)-3-hydroxy-2-methylpropanoic Acid], for which the IC50 fell in the range of 0.21 to 10 nM.

On to `C=CC(=O)NCCNCc1cc(Cl)c(OCc2cccc(-c3cccc(OCCCN4CC[C@@H](O)C4)c3C)c2C)cc1OCc1cncc(C#N)c1` [Example 1031, (R)—N-(2-((5-chloro-2-((5-cyanopyridin-3-yl)methoxy)-4-((3′-(3-(3-hydroxypyrrolidin-1-yl)propoxy)-2,2′-dimethyl-[1,1′-biphenyl]-3-yl)methoxy)benzyl)amino)ethyl)acrylamide], for which the IC50 was 10 to 100 nM.

For `Cc1c(COc2cc(OCc3cncc(C(N)=O)c3)c(CN[C@H](CO)C(=O)O)cc2Cl)cccc1-c1cccc(OCCCN2CCC(O)(C(=O)O)CC2)c1` [Example 1032, (R)-1-(3-((3′-((5-((5-carbamoylpyridin-3-yl)methoxy)-4-(((1-carboxy-2-hydroxyethyl)amino)methyl)-2-chlorophenoxy)methyl)-2′-methyl-[1,1′-biphenyl]-3-yl)oxy)propyl)-4-hydroxypiperidine-4-carboxylic Acid], the IC50 was 0.21 to 10 nM.

As for `Cc1c(COc2cc(OCc3cncc(C#N)c3)c(CN[C@H](CO)C(=O)O)cc2Cl)cccc1-c1cccc(OCCCN2CCC(O)(C(=O)O)CC2)c1` [Example 1033, (R)-1-(3-((3′-((4-(((1-carboxy-2-hydroxyethyl)amino)methyl)-2-chloro-5-((5-cyanopyridin-3-yl)methoxy)phenoxy)methyl)-2′-methyl-[1,1′-biphenyl]-3-yl)oxy)propyl)-4-hydroxypiperidine-4-carboxylic Acid], the IC50 fell in the range of 0.21 to 10 nM.

Take `C=CC(=O)NCCNCc1cc(Cl)c(OCc2cccc(-c3cccc(OCCCN4CC[C@@H](O)C4)c3C)c2C)cc1OCc1cncc(S(C)(=O)=O)c1` [Example 1034, (R)—N-(2-((5-chloro-4-((3′-(3-(3-hydroxypyrrolidin-1-yl)propoxy)-2,2′-dimethyl-[1,1′-biphenyl]-3-yl)methoxy)-2-((5-(methylsulfonyl)pyridin-3-yl)methoxy)benzyl)amino)ethyl)acrylamide]: the IC50 fell in the range of 10 to 100 nM.

`Cc1c(COc2cc(OCc3cncc(C(N)=O)c3)c(CN[C@H](CO)C(=O)O)cc2Cl)cccc1-c1cccc(OCCCN2CCC(O)(C(=O)O)CC2)c1C` [Example 1035, (R)-1-(3-((3′-((5-((5-carbamoylpyridin-3-yl)methoxy)-4-(((1-carboxy-2-hydroxyethyl)amino)methyl)-2-chlorophenoxy)methyl)-2,2′-dimethyl-[1,1′-biphenyl]-3-yl)oxy)propyl)-4-hydroxypiperidine-4-carboxylic Acid]: the IC50 is 0.21 to 10 nM.

As to `Cc1c(COc2cc(OCc3cncc(C#N)c3)c(CN[C@H](CO)C(=O)O)cc2Cl)cccc1-c1cccc(OCCCN2CCC(O)(C(=O)O)CC2)c1C` [Example 1036, (R)-1-(3-((3′-((4-(((1-carboxy-2-hydroxyethyl)amino)methyl)-2-chloro-5-((5-cyanopyridin-3-yl)methoxy)phenoxy)methyl)-2,2′-dimethyl-[1,1′-biphenyl]-3-yl)oxy)propyl)-4-hydroxypiperidine-4-carboxylic Acid], the IC50 lay within 0.21 to 10 nM.

For the compound `Cc1c(COc2cc(OCc3cncc(C#N)c3)c(CN[C@](C)(CO)C(=O)O)cc2Cl)cccc1-c1cccc(OCCCN2CCC(O)(C(=O)O)CC2)c1C` [Example 1037, (R)-1-(3-((3′-((4-(((2-carboxy-1-hydroxypropan-2-yl)amino)methyl)-2-chloro-5-((5-cyanopyridin-3-yl)methoxy)phenoxy)methyl)-2,2′-dimethyl-[1,1′-biphenyl]-3-yl)oxy)propyl)-4-hydroxypiperidine-4-carboxylic Acid], the IC50 was 0.21 to 10 nM.

In the case of `COC(=O)C1(O)CCN(CCCOc2cccc(-c3cccc(COc4cc(OCc5cncc(S(C)(=O)=O)c5)c(CN[C@H](CO)C(=O)O)cc4Cl)c3C)c2C)CC1` [Example 1038, (R)-2-((5-chloro-4-((3′-(3-(4-hydroxy-4-(methoxycarbonyl)piperidin-1-yl)propoxy)-2,2′-dimethyl-[1,1′-biphenyl]-3-yl)methoxy)-2-((5-(methylsulfonyl)pyridin-3-yl)methoxy)benzyl)amino)-3-hydroxypropanoic Acid], the IC50 lay in the range of 0.21 to 10 nM.

The values above are taken from patent publication US10745382B2 (BRISTOL-MYERS SQUIBB COMPANY, priority 2015, dated 2020).
